Assay results from EP0580968B1, “Vitamin D3 fluorinated analogs” (F. HOFFMANN-LA ROCHE AG, priority 1992, dated 1994).

Tested on: HL-60 tumor cell line
Assay: HL-60 Differentiation Assay (NBT reduction)
Type: cell-based
Details: 4 days incubation; for % Differentiated cells: NBT/TPA
Description: HL-60 Differentiation Assay:
The HL-60 tumor cell line was originally derived from a patient with promyelocytic leukemia. The cells are maintained in suspension and diluted to 200,000 cells/ml in 5 ml of suspension media. Compounds were tested at four concentrations in duplicate flasks. Control flasks were supplemented with vehicle alone at the highest concentration such as 0.1% ethanol. Flasks are incubated upright for 4 days in 5% CO2 at 37°C. On day 4, a 1 ml aliquot of cells was centrifuged, the media removed and the cells resuspended in a 0.2 ml of solution of nitroblue tetrazolium/phorbol 12 myristate 13-acetate (NBT/TPA). The cells are suspended and incubated at 37°C for 30 min. prior to transferring to ice. An aliquot is removed and a total of 200 cells is counted using a hemocytometer. Cells without pigmented granules are judged to be undifferentiated while those containing blue black formazan (indicating conversion of NBT) granules were scored as differentiated. Results are expressed as percent differentiated cells by calculating the ratio of the number of dark cells per total number of cells counted.

CC(CC#CC(O)(C(F)(F)F)C(F)(F)F)C1=CCC2C(=CC=C3CC(O)CC(O)C3)CCCC12C (stereo not shown) [Compound D, 1,25-dihydroxy-16-ene-23-yne-26,27-hexafluoro-19-nor-cholecalciferol]
EC50 (Homo sapiens, 96 h, HL-60 differentiation, read-out: ED50 (the source's name)): 800 pM
% Differentiated cells (concentration 10^-8 (unit not given)): 89.5%
% Differentiated cells (concentration 10^-9 (unit not given)): 56.5%
% Differentiated cells (concentration 10^-10 (unit not given)): 1.5%
